The conditions of data set [1]: Crystal; DTA.
Data set [2] can be described thus: Molar enthalpy of transition or fusion. Particulars: Crystal; DSC.

From the NIST ThermoML archive (doi:10.1021/acs.jced.7b00518) come the findings set out here.

± gives the expanded uncertainty stated by the source.

On to `O=C(O)/C=C/C(=O)O.OCCOCCN1CCN(C2=Nc3ccccc3Sc3ccccc32)CC1.OCCOCCN1CCN(C2=Nc3ccccc3Sc3ccccc32)CC1` [quetiapine fumarate], for which, in data set [1], the Normal melting temperature was 173.47 ± 0.61 °C. Besides, the “Molar enthalpy of transition or fusion” value in data set [2] worked out at 17.8 ± 0.478 kcal/mol.
